# Measurements taken from ChEMBL document CHEMBL1151995, “Evaluation of tea polyphenols as anti-HIV agents” (Bioorg Med Chem Lett, 1996).
# Tests used:
# [1] = Therapeutic index - IC50/EC50.; settings: read-out: Therapeutic index
# [2] = test system: Human immunodeficiency virus 1; experiment: Inhibition of HIV-1 replication in H9 (human lymphoma) cells.; assay type: functional, organism-based; settings: Human immunodeficiency virus 1, H9
# [3] = test system: H9; experiment: Inhibition of uninfected H9 lymphocytic cell growth; assay type: functional, cell-based; settings: Homo sapiens
# [4] = test system: Human immunodeficiency virus 1; experiment: Inhibition of HIV-1 replication in H9 (human lymphoma) cells; No suppression.; assay type: functional, organism-based
smiles,measurement,setting,value
O=C(O[C@@H]1Cc2c(O)cc(O)c([C@H]3c4c(O)cc(O)cc4O[C@H](c4cc(O)c(O)c(O)c4)[C@@H]3O)c2O[C@@H]1c1cc(O)c(O)c(O)c1)c1cc(O)c(O)c(O)c1,selectivity ratio,[1],1.9
same,EC50,[2],15 µg/mL
same,IC50,[3],28 µg/mL
O=C(O[C@@H]1[C@@H](c2c(O)cc(O)c3c2O[C@H](c2cc(O)c(O)c(O)c2)[C@H](OC(=O)c2cc(O)c(O)c(O)c2)C3)c2c(O)cc(O)cc2O[C@@H]1c1cc(O)c(O)c(O)c1)c1cc(O)c(O)c(O)c1,EC50,[4],No effect
same,IC50,[3],40 µg/mL
O=C(O[C@@H]1Cc2c(O)cc(O)c([C@@H]3c4c(O)cc(O)cc4O[C@H](c4cc(O)c(O)c(O)c4)[C@H]3O)c2O[C@@H]1c1cc(O)c(O)c(O)c1)c1cc(O)c(O)c(O)c1,EC50,[4],No effect
same,IC50,[3],9 µg/mL
O=C(O[C@@H]1Cc2c(O)cc(O)cc2O[C@@H]1c1cc(O)c(O)c2c1C1C([C@H]3Oc4cc(O)cc(O)c4C[C@H]3O)=CC(=O)C1(O)O2)c1cc(O)c(O)c(O)c1 (stereo partly specified),selectivity ratio,[1],1.9
same,EC50,[2],25 µg/mL
same,IC50,[3],48 µg/mL
O=C(O[C@@H]1Cc2c(O)cc(O)cc2O[C@@H]1c1cc(O)c(O)c2c(=O)c(O)cc([C@H]3Oc4cc(O)cc(O)c4C[C@H]3O)cc12)c1cc(O)c(O)c(O)c1,EC50,[4],No effect
same,IC50,[3],48 µg/mL
O=C(/C=C/c1ccc(O)cc1)O[C@@H]1Cc2c(O)cc(O)cc2O[C@@H]1c1cc(O)c(O)c(O)c1,selectivity ratio,[1],4.4
same,EC50,[2],8 µg/mL
same,IC50,[3],35 µg/mL
O=C(O[C@H](Cc1c(O)cc(O)cc1O)[C@@H](c1cc(O)c(O)c(O)c1)c1c(O)cc2c(c1O)C[C@@H](OC(=O)c1cc(O)c(O)c(O)c1)[C@@H](c1cc(O)c(O)c(O)c1)O2)c1cc(O)c(O)c(O)c1,selectivity ratio,[1],2.5
same,EC50,[2],14 µg/mL
same,IC50,[3],35 µg/mL
O=C(O[C@@H]1Cc2c(O)cc(O)cc2O[C@@H]1c1cc(O)c(O)cc1-c1c([C@H]2Oc3cc(O)cc(O)c3C[C@H]2OC(=O)c2cc(O)c(O)c(O)c2)cc(O)c(O)c1O)c1cc(O)c(O)c(O)c1,EC50,[4],No effect
same,IC50,[3],50 µg/mL
Oc1cc(O)c2c(c1)O[C@H](c1cc(O)c(O)c(O)c1)[C@H](O)C2 [EPIGALLOCATECHIN],EC50,[4],No effect
same,IC50,[3],1.8 µg/mL
O=c1c(O)cc([C@H]2Oc3cc(O)cc(O)c3C[C@H]2O)cc2c([C@H]3Oc4cc(O)cc(O)c4C[C@H]3O)cc(O)c(O)c12 [THEAFLAVIN],EC50,[4],No effect
same,IC50,[3],48 µg/mL
O=C(O[C@H]1Cc2c(O)cc3c(c2O[C@H]1c1cc(O)c(O)c(O)c1)[C@H]1c2c(O)cc(O)cc2O[C@@](c2cc(O)c(O)c(O)c2)(O3)[C@@H]1O)c1cc(O)c(O)c(O)c1,EC50,[4],No effect
same,IC50,[3],40 µg/mL
"Oc1cc(O)c2c(c1)OC(c1cc(O)c(O)c(O)c1-c1c(C3Oc4cc(O)cc(O)c4C[C@H]3O)cc(O)c(O)c1O)[C@H](O)C2 (single isomer, unassigned)",selectivity ratio,[1],2
same,EC50,[2],10 µg/mL
same,IC50,[3],20 µg/mL
O=C(O[C@@H]1Cc2c(O)cc(O)cc2O[C@@H]1c1cc(O)c(O)c(O)c1)c1cc(O)c(O)c(O)c1 [EPIGALOCATECHIN GALLATE],selectivity ratio,[1],1.1
same,EC50,[2],7 µg/mL
same,IC50,[3],8 µg/mL
O=C(O[C@H](Cc1c(O)cc(O)cc1O)[C@H](c1cc(O)c(O)c(O)c1)c1c(O)cc(O)c2c1O[C@H](c1cc(O)c(O)c(O)c1)[C@H](OC(=O)c1cc(O)c(O)c(O)c1)C2)c1cc(O)c(O)c(O)c1,EC50,[4],No effect
same,IC50,[3],9 µg/mL
O=C(Oc1c(O)cc([C@H]2Oc3cc(O)cc(O)c3C[C@H]2OC(=O)c2cc(O)c(O)c(O)c2)cc1O)c1cc(O)c(O)c(O)c1,selectivity ratio,[1],6.2
same,EC50,[2],6.5 µg/mL
same,IC50,[3],40 µg/mL
O=C(O[C@@H]1Cc2c(O)cc3c(c2O[C@@H]1c1cc(O)c(O)c(O)c1)C1(O)C(=O)O[C@H]([C@@H](O)CO)C1(O)O3)c1cc(O)c(O)c(O)c1 (stereo partly specified),selectivity ratio,[1],4
same,EC50,[2],10 µg/mL
same,IC50,[3],40 µg/mL
Oc1cc(O)c2c(c1)O[C@H](c1cc(O)c(O)c(O)c1)[C@@H](O)[C@@H]2c1c(O)cc(O)c2c1O[C@H](c1cc(O)c(O)c(O)c1)[C@H](O)C2,selectivity ratio,[1],1.5
same,EC50,[2],12 µg/mL
same,IC50,[3],18 µg/mL
COc1cc(C(=O)O[C@@H]2Cc3c(O)cc(O)cc3O[C@@H]2c2ccc(O)c(O)c2)cc(O)c1O,EC50,[4],No effect
same,IC50,[3],50 µg/mL
"Oc1ccc([C@H]2Oc3cc(O)cc(O)c3C[C@H]2O)cc1 [EPIAFZELECHIN (2R,3R)(-)]",selectivity ratio,[1],1.4
same,EC50,[2],70 µg/mL
same,IC50,[3],100 µg/mL
O=C(O[C@@H]1Cc2c(O)cc(O)cc2O[C@@H]1c1ccc(O)cc1)c1cc(O)c(O)c(O)c1,EC50,[4],Not Active
same,IC50,[3],50 µg/mL
O=C(O[C@@H]1Cc2c(O)cc(O)c(Cc3c(O)cc(O)c4c3O[C@H](c3cc(O)c(O)c(O)c3)[C@H](OC(=O)c3cc(O)c(O)c(O)c3)C4)c2O[C@@H]1c1cc(O)c(O)c(O)c1)c1cc(O)c(O)c(O)c1,EC50,[4],No effect
same,IC50,[3],45 µg/mL
O=C(O[C@@H]1Cc2c(O)cc(O)cc2O[C@@H]1c1cc(O)c(O)c(O)c1-c1c([C@H]2Oc3cc(O)cc(O)c3C[C@H]2OC(=O)c2cc(O)c(O)c(O)c2)cc(O)c(O)c1O)c1cc(O)c(O)c(O)c1 [THEASINENSIN A],selectivity ratio,[1],0.95
same,EC50,[2],19 µg/mL
same,IC50,[3],18 µg/mL
O=C(Oc1cc([C@H]2Oc3cc(O)cc(O)c3C[C@H]2OC(=O)c2cc(O)c(O)c(O)c2)cc(O)c1O)c1cc(O)c(O)c(O)c1,selectivity ratio,[1],6.2
same,EC50,[2],6.5 µg/mL
same,IC50,[3],40 µg/mL
O=C1c2c(O)cc(O)cc2O[C@H](c2ccc(O)c(O)c2)[C@H]1O [(+)-TAXIFOLIN],selectivity ratio,[1],1
same,EC50,[2],9.8 µg/mL
same,IC50,[3],9.8 µg/mL
O=C(O[C@@H]1Cc2c(cc(O)c(Cc3c(O)cc(O)c4c3O[C@H](c3cc(O)c(O)c(O)c3)[C@H](OC(=O)c3cc(O)c(O)c(O)c3)C4)c2O)O[C@@H]1c1cc(O)c(O)c(O)c1)c1cc(O)c(O)c(O)c1,selectivity ratio,[1],1.6
same,EC50,[2],25 µg/mL
same,IC50,[3],40 µg/mL
Oc1cc(O)c2c(c1)O[C@H](c1cc(O)c(O)c(O)c1-c1c([C@H]3Oc4cc(O)cc(O)c4C[C@H]3O)cc(O)c(O)c1O)[C@H](O)C2,selectivity ratio,[1],1.6
same,EC50,[2],6 µg/mL
same,IC50,[3],9.5 µg/mL
O=C1O[C@H]([C@@H](O)CO)C2(O)Oc3cc(O)c4c(c3C12O)O[C@H](c1cc(O)c(O)c(O)c1)[C@H](O)C4 (stereo partly specified),selectivity ratio,[1],9.5
same,EC50,[2],4 µg/mL
same,IC50,[3],38 µg/mL
O=C(O[C@H](Cc1c(O)cc(O)cc1O)[C@@H](c1cc(O)c(O)c(O)c1)c1c(O)cc(O)c2c1O[C@H](c1cc(O)c(O)c(O)c1)[C@H](OC(=O)c1cc(O)c(O)c(O)c1)C2)c1cc(O)c(O)c(O)c1,EC50,[4],No effect
same,IC50,[3],8 µg/mL
O=C(O[C@@H]1Cc2c(O)cc(O)cc2O[C@@H]1c1cc(O)c(=O)c2c(O)c(O)c(O)cc2c1)c1cc(O)c(O)c(O)c1,selectivity ratio,[1],4.5
same,EC50,[2],5.5 µg/mL
same,IC50,[3],25 µg/mL
Oc1cc(O)c2c(c1)O[C@H](c1cc(O)c(O)c(O)c1)[C@H](O)[C@H]2c1c(O)cc(O)c2c1O[C@H](c1cc(O)c(O)c(O)c1)[C@H](O)C2,selectivity ratio,[1],1.2
same,EC50,[2],15 µg/mL
same,IC50,[3],18 µg/mL
O=C(O[C@@H]1Cc2c(cc(O)c(Cc3c(O)cc4c(c3O)C[C@@H](OC(=O)c3cc(O)c(O)c(O)c3)[C@@H](c3cc(O)c(O)c(O)c3)O4)c2O)O[C@@H]1c1cc(O)c(O)c(O)c1)c1cc(O)c(O)c(O)c1,selectivity ratio,[1],3.9
same,EC50,[2],9 µg/mL
same,IC50,[3],35 µg/mL
COc1c(O)cc(C(=O)O[C@@H]2Cc3c(O)cc(O)cc3O[C@@H]2c2ccc(O)c(O)c2)cc1O,EC50,[4],No effect
same,IC50,[3],50 µg/mL
O=C(O[C@@H]1[C@@H](c2c(O)cc3c(c2O)C[C@@H](OC(=O)c2cc(O)c(O)c(O)c2)[C@@H](c2cc(O)c(O)c(O)c2)O3)c2c(O)cc(O)cc2O[C@@H]1c1cc(O)c(O)c(O)c1)c1cc(O)c(O)c(O)c1,selectivity ratio,[1],2
same,EC50,[2],15 µg/mL
same,IC50,[3],30 µg/mL
O=C(O[C@@H]1Cc2c(O)cc(O)cc2O[C@@H]1c1cc(O)c(=O)c2c(O)c(O)cc([C@H]3Oc4cc(O)cc(O)c4C[C@H]3OC(=O)c3cc(O)c(O)c(O)c3)c2c1)c1cc(O)c(O)c(O)c1 [THEAFLAVIN DIGALLATE],EC50,[4],No effect
same,IC50,[3],48 µg/mL
"O=C(O[C@@H]1Cc2c(O)cc(O)cc2OC1c1cc(O)c(O)c(O)c1-c1c(C2Oc3cc(O)cc(O)c3C[C@H]2OC(=O)c2cc(O)c(O)c(O)c2)cc(O)c(O)c1O)c1cc(O)c(O)c(O)c1 (single isomer, unassigned)",selectivity ratio,[1],5
same,EC50,[2],8 µg/mL
same,IC50,[3],40 µg/mL
O=C(O[C@@H]1Cc2c(O)cc(O)cc2O[C@@H]1c1ccc(O)c(O)c1)c1cc(O)c(O)c(O)c1 [EPICATECHIN GALLATE],EC50,[4],No effect
same,IC50,[3],> 10 µg/mL
"O=C(Oc1cc(O)cc2c1C[C@@H](OC(=O)c1cc(O)c(O)c(O)c1)[C@@H](c1cc(O)c(O)c(O)c1)O2)c1cc(O)c(O)c(O)c1 [EPIGALLOCATECHIN 3,5-DIGALLATE]",selectivity ratio,[1],3.6
same,EC50,[2],5.5 µg/mL
same,IC50,[3],20 µg/mL
